In data set [1] the test system is S. aureus. As to the kind of experiment: MIC by microdilution broth method (NCCLS), S. aureus Broth. It counts as cell-based. As to conditions: Staphylococcus aureus, cation adjusted Mueller-Hinton broth, 35° C., 16-20 hours, read-out: MIC (μg/mL) S. aureus Broth. As for the experimental part: (§1) Minimal inhibitory concentration (MIC) has been an indicator of in vitro antibacterial activity widely used in the art. The in vitro antimicrobial activity of the compounds was determined by the microdilution broth method following the test method from the National Committee for Laboratory Standards (NCCLS). This method is described in the NCCLS Document M7-A4, Vol. 17, No.2, “Methods for Dilution Antimicrobial Susceptibility Test for Bacteria that Grow Aerobically-Fourth Edition”, which is incorporated herein by reference.
(§2) In this method two-fold serial dilutions of drug in cation adjusted Mueller-Hinton broth are added to wells in microdilution trays. The test organisms are prepared by adjusting the turbidity of actively growing broth cultures so that the final concentration of test organism after it is added to the wells is approximately 5×10^4 CFU/well.
(§3) Following inoculation of the microdilution trays, the trays are incubated at 35° C. for 16-20 hours and then read. […] The amount of growth in the wells containing the test compound is compared with the amount of growth in the growth-control wells (no test compound) used in each tray. As set forth in Table 1, compounds of the present invention were tested against a variety of Gram positive and Gram negative pathogenic bacteria resulting in a range of activities, from 1 to ≧128 μg/mL depending on the organism tested.
(In general: In broth dilution the organism is exposed to a series of concentrations in liquid medium.)

Data set [2] relates to E. faecium OC3312. As to the kind of experiment: MIC by microdilution broth method (NCCLS), E. faecium OC3312. It counts as cell-based. The conditions noted are these: Enterococcus faecium, OC3312, microdilution broth, cation adjusted Mueller-Hinton broth, 35° C., 16-20 hours; read-out: MIC (μg/mL) E. faecium OC3312. As for the experimental part: as §1, §2, §3
Data set [3] deals with MRSA OC 2878. In words: MIC by microdilution broth method (NCCLS), MRSA OC 2878. It counts as cell-based, Staphylococcus aureus. As to conditions: Staphylococcus aureus, MRSA, cation adjusted Mueller-Hinton broth, 35° C., 16-20 hours, read-out: MIC (μg/mL) MRSA OC 2878. The protocol: as §1, §2, §3

Converted amounts (≈) assume the structure as drawn. Some results are limits rather than exact numbers.

For the molecule `CC(=O)NC[C@H]1CN(c2ccc(OC3CCN(C(=O)OC(C)(C)C)CC3)c(F)c2)C(=O)O1` [Compound 1, (S)-N-[[3-[3-Fluoro-4-{N-(t-butoxycarbonyl)piperidinyl-4-oxy}phenyl]-2-oxo-5-oxazolidinyl]methyl]acetamide], the melting point (as a rule, the temperature of the solid-liquid transition) is 179 to 180 °C. Moreover, the MIC in data set [1] was 32 µg/mL (≈ 70.9 µM). For the same molecule, in data set [2], the MIC is more than 32 µg/mL. For the same molecule, the MIC in data set [3] is 16 µg/mL (≈ 35.4 µM).

For `CC(=O)NC[C@H]1CN(c2ccc(OC3CCNCC3)c(F)c2)C(=O)O1` [Compound 2, (S)-N-[[3-[3-Fluoro-4-{piperidinyl-4-oxy}phenyl]-2-oxo-5-oxazolidinyl]methyl]acetamide], the melting point lay within 55 to 59 °C. Further, in data set [1], the MIC was determined as 8 µg/mL (≈ 22.8 µM). For the same molecule, the MIC in data set [2] came to 8 µg/mL (≈ 22.8 µM). Moreover, the MIC in data set [3] amounted to 32 µg/mL (≈ 91.1 µM).

Molecule `CC(=O)NC[C@H]1CN(c2ccc(OC3CCN(S(C)(=O)=O)CC3)c(F)c2)C(=O)O1` [Compound 6, (S)-N-[[3-[3-Fluoro-4-{N-(methanesulfonyl)piperidinyl-4-oxy}phenyl]-2-oxo-5-oxazolidinyl]methyl]acetamide] gave a melting point of 123 to 125 °C. Besides, the MIC in data set [1] stood at 4 µg/mL (≈ 9.31 µM). Besides, the MIC in data set [2] was 8 µg/mL (≈ 18.6 µM). The MIC in data set [3] came to 4 µg/mL (≈ 9.31 µM).

`CC(=O)NC[C@H]1CN(c2ccc(OC3CCN(c4ncccn4)CC3)c(F)c2)C(=O)O1` [Compound 9, (S)-N-[[3-[3-Fluoro-4-{N-(2-pyrimidinyl)piperidinyl-4-oxy}phenyl]-2-oxo-5-oxazolidinyl]methyl]acetamide] had a melting point of 121 to 123 °C. For the same molecule, the MIC in data set [1] came out at 4 µg/mL (≈ 9.31 µM). For the same molecule, in data set [2], the MIC was 8 µg/mL (≈ 18.6 µM). Also, in data set [3], the MIC amounted to 4 µg/mL (≈ 9.31 µM).

The molecule `CC(=O)NC[C@H]1CN(c2ccc(OC3CCN(C(=O)c4cccc(C(F)(F)F)c4)CC3)c(F)c2)C(=O)O1` [Compound 10, (S)-N-[[3-[3-Fluoro-4-{N-(3-trifluoromethylbenzoyl)piperidinyl-4-oxy}phenyl]-2-oxo-5-oxazolidinyl]methyl]acetamide] displayed a melting point of 150 to 152 °C. Also, the MIC in data set [1] came to 16 µg/mL (≈ 30.6 µM). The MIC in data set [2] turned out to be 32 µg/mL (≈ 61.1 µM). In addition, the MIC in data set [3] came to 16 µg/mL (≈ 30.6 µM).

For the molecule `CC(=O)NC[C@H]1CN(c2ccc(OC3CCN(C(=O)c4ccc(C#N)cc4)CC3)c(F)c2)C(=O)O1` [Compound 11, (S)-N-[[3-[3-Fluoro-4-{N-(4-cyanobenzoyl)piperidinyl-4-oxy}phenyl]-2-oxo-5-oxazolidinyl]methyl]acetamide], the melting point is 75 to 78 °C. Besides, the MIC in data set [1] worked out at 16 µg/mL (≈ 33.3 µM). The MIC in data set [2] was found to be 16 µg/mL (≈ 33.3 µM). In data set [3], the MIC was 8 µg/mL (≈ 16.6 µM).

The molecule `CC(=O)NC[C@H]1CN(c2ccc(OC3CCN(C(=O)c4cccc(C#N)c4)CC3)c(F)c2)C(=O)O1` [Compound 12, (S)-N-[[3-[3-Fluoro-4-{N-(3-cyanobenzoyl)piperidinyl-4-oxy}phenyl]-2-oxo-5-oxazolidinyl]methyl]acetamide] gave a melting point of 82 to 85 °C. Further, the MIC in data set [1] was found to be 8 µg/mL (≈ 16.6 µM). Besides, in data set [2], the MIC was determined as 16 µg/mL (≈ 33.3 µM). The MIC in data set [3] came to 8 µg/mL (≈ 16.6 µM).

For `CC(=O)NC[C@H]1CN(c2ccc(OC3CCN(c4ccc(C#N)cn4)CC3)c(F)c2)C(=O)O1` [Compound 14, (S)-N-[[3-[3-Fluoro-4-{N-(5-cyano-2-pyridyl)piperidinyl-4-oxy}phenyl]-2-oxo-5-oxazolidinyl]methyl]acetamide], the melting point lay within 78 to 84 °C. In addition, the MIC in data set [1] came to 4 µg/mL (≈ 8.82 µM). For the same molecule, the MIC in data set [2] was 8 µg/mL (≈ 17.6 µM). In data set [3], the MIC stood at 4 µg/mL (≈ 8.82 µM).

For `CC(=O)NC[C@H]1CN(c2ccc(OC3CCN(C(=O)CN)CC3)c(F)c2)C(=O)O1` [Compound 16], the melting point is 142 to 146 °C. Also, in data set [1], the MIC is 32 µg/mL (≈ 78.3 µM). For the same molecule, the MIC in data set [2] is 32 µg/mL (≈ 78.3 µM). Besides, in data set [3], the MIC is 32 µg/mL (≈ 78.3 µM).

For the molecule `CC(=O)NC[C@H]1CN(c2ccc(OC3CCN(C(=O)CNS(C)(=O)=O)CC3)c(F)c2)C(=O)O1` [Compound 17, (S)-N-[[3-[3-Fluoro-4-{N-(α-methylsulfonylaminoacetyl)piperidinyl-4-oxy}phenyl]-2-oxo-5-oxazolidinyl]methyl]acetamide], the melting point lay in the range of 78 to 82 °C. In addition, in data set [1], the MIC came out at 8 µg/mL (≈ 16.4 µM). In addition, in data set [2], the MIC was found to be 16 µg/mL (≈ 32.9 µM). Further, the MIC in data set [3] turned out to be 16 µg/mL (≈ 32.9 µM).

Regarding `CC(=O)NCC(=O)N1CCC(Oc2ccc(N3C[C@H](CNC(C)=O)OC3=O)cc2F)CC1` [Compound 18, (S)-N-[[3-[3-Fluoro-4-{N-(α-N-acetylaminoacetyl)piperidinyl-4-oxy}phenyl]-2-oxo-5-oxazolidinyl]methyl]acetamide], the melting point is 66 to 68 °C. Moreover, the MIC in data set [1] worked out at 8 µg/mL (≈ 17.8 µM). In addition, the MIC in data set [2] amounted to 64 µg/mL (≈ 142 µM). Besides, the MIC in data set [3] amounted to 16 µg/mL (≈ 35.5 µM).

For the molecule `CC(=O)NC[C@H]1CN(c2ccc(OC3CCN(C(=O)c4cccnc4)CC3)c(F)c2)C(=O)O1` [Compound 19, (S)-N-[[3-[3-Fluoro-4-{N-(3-pyridoyl)piperidinyl-4-oxy}phenyl]-2-oxo-5-oxazolidinyl]methyl]acetamide], the melting point is 49 to 53 °C. In addition, in data set [1], the MIC is 16 µg/mL (≈ 35.1 µM). Besides, the MIC in data set [2] was determined as 32 µg/mL (≈ 70.1 µM). Moreover, the MIC in data set [3] was 32 µg/mL (≈ 70.1 µM).

Consider `CC(=O)NC[C@H]1CN(c2ccc(OC3CCN(C(=O)c4ccccn4)CC3)c(F)c2)C(=O)O1` [Compound 20, (S)-N-[[3-[3-Fluoro-4-{N-(2-pyridoyl)piperidinyl-4-oxy}phenyl]-2-oxo-5-oxazolidinyl]methyl]acetamide], for which the melting point fell in the range of 55 to 58 °C. In addition, the MIC in data set [1] stood at 8 µg/mL (≈ 17.5 µM). Besides, the MIC in data set [2] was 16 µg/mL (≈ 35.1 µM). In data set [3], the MIC stood at 8 µg/mL (≈ 17.5 µM).

In turn, `CC(=O)NC[C@H]1CN(c2ccc(OC3CCN(C(=O)c4cccs4)CC3)c(F)c2)C(=O)O1` [Compound 22, (S)-N-[[3-[3-Fluoro-4-{N-(2-thienylcarbonyl)piperidinyl-4-oxy}phenyl]-2-oxo-5-oxazolidinyl]methyl]acetamide] gave a melting point of 48 to 51 °C. The MIC in data set [1] amounted to 8 µg/mL (≈ 17.3 µM). Moreover, the MIC in data set [2] is 8 µg/mL (≈ 17.3 µM). Besides, the MIC in data set [3] was 4 µg/mL (≈ 8.67 µM).

With `CC(=O)NC[C@H]1CN(c2ccc(OC3CCN(C(=O)CN4CCOCC4)CC3)c(F)c2)C(=O)O1` [Compound 56], the MIC in data set [1], in data set [2] and in data set [3] was 32 µg/mL (≈ 66.9 µM) in each case.

With `CC(=O)NC[C@H]1CN(c2ccc(OC3CN(S(C)(=O)=O)C3)c(F)c2)C(=O)O1` [Compound 57, (S)-N-[[3-[3-Fluoro-4-{N-(methanesulfonyl)azetidinyl-3-oxy}phenyl]-2-oxo-5-oxazolidinyl]methyl]acetamide], the MIC in data set [1], in data set [2] and in data set [3] was 16 µg/mL (≈ 39.9 µM) in each case.

As to `CC(=O)OCC(=O)N1CC(Oc2ccc(N3C[C@H](CN(C(C)=O)C(=O)COC(C)=O)OC3=O)cc2F)C1` [Compound 60, (S)-N-[[3-[3-Fluoro-4-{N-(acetoxyacetyl)azetidinyl-3-oxy}phenyl]-2-oxo-5-oxazolidinyl]methyl]-N-[α-acetoxyacetyl]acetamide], the MIC in data set [1] is 8 µg/mL (≈ 15.3 µM); in data set [2], more than 128 µg/mL; in data set [3], 16 µg/mL (≈ 30.6 µM).
